# Measured values as given in patent publication US9464058B2 (Hoffmann-La Roche Inc., priority 2012, dated 2016).
# Experiments:
# [1] = target: T1, human CYP11B2 (Homo sapiens, UniProt P19099); assay: G-402 cellular enzyme assay, human CYP11B2 (aldosterone release, HTRF); format: cell-based; conditions: G-402 cells expressing human CYP11B2; 1 μM Deoxycorticosterone; 16 h
# T1 construct: expressed in transfected cells
# T1 sequence (P19099 25-503): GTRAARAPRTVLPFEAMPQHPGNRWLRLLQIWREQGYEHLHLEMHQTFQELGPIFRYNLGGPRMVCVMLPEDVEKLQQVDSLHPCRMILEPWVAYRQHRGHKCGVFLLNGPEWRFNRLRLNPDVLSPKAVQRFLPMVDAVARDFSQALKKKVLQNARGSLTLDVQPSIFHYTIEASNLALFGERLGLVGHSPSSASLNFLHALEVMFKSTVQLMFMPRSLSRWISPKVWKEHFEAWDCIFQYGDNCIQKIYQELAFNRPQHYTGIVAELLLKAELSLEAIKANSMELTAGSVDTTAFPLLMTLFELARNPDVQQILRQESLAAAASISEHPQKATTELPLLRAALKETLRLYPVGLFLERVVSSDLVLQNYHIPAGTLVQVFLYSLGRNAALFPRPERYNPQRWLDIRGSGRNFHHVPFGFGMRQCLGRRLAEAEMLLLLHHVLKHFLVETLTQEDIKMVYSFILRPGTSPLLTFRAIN
# Text: (§1) Herein we identified the use of the G-402 cell line as a host cell to ectopically express (transiently or stably) enzymes of the CYP11 family. Specifically we developed stable G-402 cells expressing ectopically human CYP11B1, human CYP11B2, human CYP11A1, cynomolgus CYP11B1 or cynomolgus CYP11B2 enzyme activity. Importantly, the identified cell line G-402 expresses co-factors (adrenodoxin and adrenodoxin reductase) important for the activity of the CYP11 family, and no relevant enzyme activity of the CYP11 family (in comparison to H295R cells) was detected in these cells. Therefore the G-402 cell line is uniquely suited as a host cell for the ectopic expression of enzymes from the CYP11 family.
# (§2) G-402 cells can be obtained from ATCC(CRL-1440) and were originally derived from a renal leiomyoblastoma.
# (§3) The expression plasmids contains the ORF for either human/cyno CYP11B1 or CYP11B2 under the control of a suitable promoter (CMV-promoter) and a suitable resistance marker (neomycin). Using standard techniques the expression plasmid is transfected into G-402 cells and these cells are then selected for expressing the given resistance markers. Individual cell-clones are then selected and assessed for displaying the desired enzymatic activity using 11-Deoxycorticosterone (Cyp11B2) or 11-Deoxycortisol (Cyp11B1) as a substrate.
# (§4) G-402 cells expressing CYP11 constructs were established as described above and maintained in McCoy's 5a Medium Modified, ATCC Catalog No. 30-2007 containing 10% FCS and 400 μg/ml G418 (Geneticin) at 37° C. under an atmosphere of 5% CO2/95% air. Cellular enzyme assays were performed in DMEM/F12 medium containing 2.5% charcoal treated FCS and appropriate concentration of substrate (0.3-10 uM 11-Deoxycorticosterone, 11-Deoxycortisol or Corticosterone). For assaying enzymatic activity, cells were plated onto 96 well plates and incubated for 16 h. An aliquot of the supernatant is then transferred and analyzed for the concentration of the expected product (Aldosterone for CYP11B2; Cortisol for CYP11B1). The concentrations of these steroids can be determined using HTRF assays from CisBio analyzing either Aldosterone or Cortisol.
# (§5) Inhibition of the release of produced steroids can be used as a measure of the respective enzyme inhibition by test compounds added during the cellular enzyme assay. The dose dependent inhibition of enzymatic activity by a compound is calculated by means of plotting added inhibitor concentrations (x-axes) vs. measured steroid/product level (y-axes). The inhibition is then calculated by fitting the following 4-parameter sigmoidal function (Morgan-Mercer-Flodin (MMF) model) to the raw data points using the least squares method:
# (§6) [formula] wherein A is the maximum y value, B is the EC50 factor determined using XLFit, C is the minimum y value and D is the slope value.
# (§7) EC50 values for compounds claimed herein were tested with the G402-based assay system described. Cyp11B2 enzyme activity was tested in presence of 1 μM Deoxycorticosterone and variable amounts of inhibitors; Cyp11B1 enzyme activity was tested in presence of 1 μM Deoxycortisol and variable amounts of inhibitors.
# [2] = target: T2, human CYP11B1 (Homo sapiens, UniProt P15538); assay: G-402 cellular enzyme assay, human CYP11B1 (cortisol release, HTRF); format: cell-based; conditions: G-402 cells expressing human CYP11B1; 1 μM Deoxycortisol; 16 h
# T2 construct: expressed in transfected cells
# T2 sequence (P15538 25-503): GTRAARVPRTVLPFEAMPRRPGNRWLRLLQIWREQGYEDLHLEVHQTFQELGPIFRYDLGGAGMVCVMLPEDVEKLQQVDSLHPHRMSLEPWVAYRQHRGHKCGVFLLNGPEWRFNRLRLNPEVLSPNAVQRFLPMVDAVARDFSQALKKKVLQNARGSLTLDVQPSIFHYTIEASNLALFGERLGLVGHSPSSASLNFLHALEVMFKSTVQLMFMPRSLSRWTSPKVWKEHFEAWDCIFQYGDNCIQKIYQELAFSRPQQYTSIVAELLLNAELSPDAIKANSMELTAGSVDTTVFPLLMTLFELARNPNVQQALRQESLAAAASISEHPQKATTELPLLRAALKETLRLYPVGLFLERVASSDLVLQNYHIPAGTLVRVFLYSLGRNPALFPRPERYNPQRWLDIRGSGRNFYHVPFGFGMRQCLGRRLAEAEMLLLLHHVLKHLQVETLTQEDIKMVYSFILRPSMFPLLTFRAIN
# Text: as §1, §2, §3, §4, §5, §6, §7
Compound,EC50 [1],EC50 [2]
"CCC(CC)n1cncc1C(=O)c1ccc(C#N)cc1 [Example 82, 4-[3-(1-Ethyl-propyl)-3H-imidazole-4-carbonyl]-benzonitrile]",0.0002 µM,0.0033 µM
"CC(C)n1cncc1C(=O)c1ccc(Br)cc1 [Example 72, (4-Bromo-phenyl)-(3-isopropyl-3H-imidazol-4-yl)-methanone]",0.0052 µM,0.0101 µM
"O=C(c1ccc(F)c(Cl)c1)c1cncn1C1CC1 [Example 41, (3-Chloro-4-fluoro-phenyl)-(3-cyclopropyl-3H-imidazol-4-yl)-methanone]",0.0035 µM,0.021 µM
"CCn1cncc1C(=O)c1ccc(SC(F)(F)F)c(OC)c1 [Example 80, (3-Ethyl-3H-imidazol-4-yl)-(3-methoxy-4-trifluoromethylsulfanyl-phenyl)-methanone]",0.0129 µM,0.634 µM
"CCn1cncc1C(=O)c1ccc(N(C)C(C)=O)cc1 [Example 67, N-[4-(3-Ethyl-3H-imidazole-4-carbonyl)-phenyl]-N-methyl-acetamide]",0.291 µM,9.91 µM
"CCn1cncc1C(=O)c1ccc(F)c(Cl)c1 [Example 33, (3-Chloro-4-fluoro-phenyl)-(3-ethyl-3H-imidazol-4-yl)-methanone]",0.0037 µM,0.0317 µM
"C#Cc1ccc(C(=O)c2cncn2C)cc1 [Example 29, (4-Ethynyl-phenyl)-(3-methyl-3H-imidazol-4-yl)-methanone]",0.0203 µM,0.259 µM
"CN1C(=O)CCc2cc(C(=O)c3cncn3C)ccc21 [Example 25, 1-Methyl-6-(3-methyl-3H-imidazole-4-carbonyl)-3,4-dihydro-1H-quinolin-2-one]",0.077 µM,7.88 µM
"N#Cc1cccc(C(=O)c2cncn2C2CC2)c1 [Example 58, 3-(3-Cyclopropyl-3H-imidazole-4-carbonyl)-benzonitrile]",0.0872 µM,0.89 µM
"CCn1cncc1C(=O)c1ccc(C#N)cc1 [Example 5, 4-(3-Ethyl-3H-imidazole-4-carbonyl)-benzonitrile]",0.0026 µM,0.0468 µM
"COc1cc(C(=O)c2cncn2C)ccc1SC(F)(F)F [Example 79, (3-Methoxy-4-trifluoromethylsulfanyl-phenyl)-(3-methyl-3H-imidazol-4-yl)-methanone]",0.0148 µM,1.58 µM
"COc1cc(C(=O)c2cncn2C)ccc1SC [Example 50, (3-Methoxy-4-methylsulfanyl-phenyl)-(3-methyl-3H-imidazol-4-yl)-methanone]",0.0148 µM,0.687 µM
"COc1cc(C(=O)c2cncn2C(C)C)ccc1SC(F)(F)F [Example 81, (3-Isopropyl-3H-imidazol-4-yl)-(3-methoxy-4-trifluoromethylsulfanyl-phenyl)-methanone]",0.0159 µM,0.199 µM
"CCC(C)n1cncc1C(=O)c1ccc(F)c(C#N)c1 (centres unmarked) [Example 65, 5-(3-sec-Butyl-3H-imidazole-4-carbonyl)-2-fluoro-benzonitrile]",0.0215 µM,0.0882 µM
"N#Cc1ccc(-n2cncc2C(=O)c2ccc(Cl)cc2)cc1 [Example 95, 4-[5-(4-Chloro-benzoyl)-imidazol-1-yl]-benzonitrile]",0.0022 µM,0.0718 µM
"CCn1cncc1C(=O)c1ccc(SC)c(OC)c1 [Example 60, (3-Ethyl-3H-imidazol-4-yl)-(3-methoxy-4-methylsulfanyl-phenyl)-methanone]",0.004 µM,0.0843 µM

Compound,EC50 [1],EC50 [2]
"O=C(c1ccc(Cl)cc1)c1cncn1-c1ccc(Cl)cc1 [Example 90, (4-Chloro-phenyl)-[3-(4-chloro-phenyl)-3H-imidazol-4-yl]-methanone]",0.0026 µM,3.62 µM
"CCn1cncc1C(=O)c1ccc(C(F)(F)F)cc1 [Example 36, (3-Ethyl-3H-imidazol-4-yl)-(4-trifluoromethyl-phenyl)-methanone]",0.0587 µM,1.75 µM
"Cn1cncc1C(=O)c1cccc(C#N)c1 [Example 21, 3-(3-Methyl-3H-imidazole-4-carbonyl)-benzonitrile]",0.583 µM,8.71 µM
"O=C(c1ccc(Cl)c(Cl)c1)c1cncn1-c1ccc(Cl)cc1 [Example 91, [3-(4-Chloro-phenyl)-3H-imidazol-4-yl]-(3,4-dichloro-phenyl)-methanone]",0.0042 µM,0.439 µM
"CC(C)n1cncc1C(=O)c1cccc(Cl)c1 [Example 12, (3-Chloro-phenyl)-(3-isopropyl-3H-imidazol-4-yl)-methanone]",0.0013 µM,0.0053 µM
"CC(C)n1cncc1C(=O)c1ccc2c(c1)CCC(=O)N2C [Example 27, 6-(3-Isopropyl-3H-imidazole-4-carbonyl)-1-methyl-3,4-dihydro-1H-quinolin-2-one]",0.0069 µM,0.153 µM
"CCC(C)n1cncc1C(=O)c1ccc(C#N)cc1 (centres unmarked) [Example 16, 4-(3-sec-Butyl-3H-imidazole-4-carbonyl)-benzonitrile]",0.0007 µM,0.001 µM
"CCn1cncc1C(=O)c1ccc(N(C)C=O)cc1 [Example 89, N-[4-(3-Ethyl-3H-imidazole-4-carbonyl)-phenyl]-N-methyl-formamide]",0.0294 µM,0.744 µM
"C#Cc1ccc(C(=O)c2cncn2C(C)C)cc1 [Example 54, (4-Ethynyl-phenyl)-(3-isopropyl-3H-imidazol-4-yl)-methanone]",0.0005 µM,0.0068 µM
CCC(C)n1cncc1C(=O)c1ccc(Cl)cc1 (centres unmarked) [Example 17],0.0003 µM,0.0035 µM
"N#Cc1ccc(-n2cncc2C(=O)c2ccc(Cl)c(Cl)c2)cc1Cl [Example 78, 2-Chloro-4-[5-(3,4-dichloro-benzoyl)-imidazol-1-yl]-benzonitrile]",0.0037 µM,0.145 µM
"CCC(CC)n1cncc1C(=O)c1cccc(C#N)c1 [Example 83, 3-[3-(1-Ethyl-propyl)-3H-imidazole-4-carbonyl]-benzonitrile]",0.0057 µM,0.057 µM
"CN(C=O)c1ccc(C(=O)c2cncn2C)cc1 [Example 87, N-Methyl-N-[4-(3-methyl-3H-imidazole-4-carbonyl)-phenyl]-formamide]",0.186 µM,30.4 µM
"CCn1cncc1C(=O)c1ccc(SC(F)(F)F)cc1 [Example 74, (3-Ethyl-3H-imidazol-4-yl)-(4-trifluoromethylsulfanyl-phenyl)-methanone]",0.235 µM,1.32 µM
"CCC(C)n1cncc1C(=O)c1cccc(C#N)c1 (centres unmarked) [Example 37, 3-(3-sec-Butyl-3H-imidazole-4-carbonyl)-benzonitrile]",0.0063 µM,0.0782 µM
